Values joined by “and” are separate entries in the source; they are usually repeats but may differ in a detail not shown here. Equal values may be shown once. Square brackets hold non-standard residues; d marks the D form. Ends that are not written are not given here. pS = N[C@@H](COP(=O)(O)O)C(=O)O
Key:
[1] = test system: HIV-1 transcription in CEM-GFP cells; assay: cells; type: cell-based; settings: for IC50: Human immunodeficiency virus 1, CEM-GFP, 24 h, read-out: Inhibition of HIV-1 Transcription in CEM-GFP cells (IC50, μM)
[2] = test system: CEM cells; assay: Toxicity by propidium iodide fluorescence in CEM-GFP cells; type: cell-based; settings: Homo sapiens, CCRF-CEM, 3 µM to 45 µM, 24 h
[3] = biological target: T1, recombinant PP1α (Oryctolagus cuniculus, UniProt P62139); assay: Malachite green dephosphorylation of RVxF-containing hybrid pRb peptides by PP1α; type: biochemical; settings: peptide as substrate, no compound added
T1 construct: purchased New England Biolabs, Ipswich, MA
T1 sequence (P62139 whole entry): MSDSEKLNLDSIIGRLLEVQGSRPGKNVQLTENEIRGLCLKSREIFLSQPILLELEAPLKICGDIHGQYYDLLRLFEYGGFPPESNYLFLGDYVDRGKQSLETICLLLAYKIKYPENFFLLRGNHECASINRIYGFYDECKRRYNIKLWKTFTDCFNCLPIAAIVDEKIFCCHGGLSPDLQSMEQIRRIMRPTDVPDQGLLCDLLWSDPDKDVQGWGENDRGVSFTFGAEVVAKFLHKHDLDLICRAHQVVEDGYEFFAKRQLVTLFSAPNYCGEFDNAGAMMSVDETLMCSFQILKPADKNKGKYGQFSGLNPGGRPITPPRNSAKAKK
From the text: Here, we analyzed the effect of 1H4 on the binding of the Tat RVxF sequence to PP1 using hybrid PP1 substrates containing a substrate phosphopeptide linked to RVxF-containing sequences derived from Tat or NIPP1. As the substrate phosphopeptide, we used a retinoblastoma protein-derived HIPR(pS)[…] peptide (pRb) that is efficiently dephosphorylated by PP1 but not by the enzymatically-related PP2A [13]. The pRb peptide was linked to an extended RVxF-containing sequence derived from Tat ([…]) (pRb-Tat peptide) or the central domain of NIPP1 ([…]). To visualize the interaction between pRb-Tat and PP1 we built a computational model of the pRb-Tat peptide with PP1 complex (described in Materials and Methods). Based on this model, the pRb-Tat peptide is able to bind to the RVxF- accommodating groove of PP1 and, at the same time, to reach the active site of PP1 without any tension (Fig. 5A, green spheres; Fig. 5B, gray sticks). The pRb-Tat peptide was efficiently dephosphorylated by PP1 in vitro (Fig. 5C, V0 = 0.31 µM·min^-1). […] Addition of 1H4 at 3-fold molar excess (480 µM) over pRb-Tat (160 µM) inhibited pRb-Tat dephosphorylation and reduced the rate of dephosphorylation (Fig. 5C, V0 = 0.19 µM·min^−1) to the rate of pRb-Tat QACA dephosphorylation (Fig. 5C, V0 = 0.17 µM⋅min^−1). […] To further investigate the effect of 1H4 on the dephosphorylation of the pRb-Tat peptide, we analyzed the initial velocity versus pRb-Tat peptide substrate concentration plots. […] This was expected because the dephosphorylation site and the RVxF-containing sequence were fused into one hybrid substrate and 1H4 interferes with the binding of this substrate to PP1.
Figure 5 1H4 compound competes with RVxF motif. A. Superimposition of pRb-Tat peptide on the complex of PP1 with Spinophilin. PP1 surface is colored after the atom types. The spinophilin peptide is shown as magenta ribbon and the pRb-Tat peptide as orange ribbon. The Val25 and Phe27 residues of pRb-Tat and the Ile449 and Phe 451 residues of Spinophilin are shown as sticks. The 2-(N-morpholino)-ethanesulfonic acid bound in the active site of PP1 is shown in green spheres. The phosphorylated Ser6 residue of pRb-Tat peptide is shown as sticks. B. Phosphorylated Ser 6 residue binds to the active site of PP1. Comparative superimposition of pRb-Tat peptide over the crystal structure of MES bound in the active site of PP1. Catalytic resides are shown as sticks. MES is shown as green sticks, and the phosphorylated Ser6 residue of pRb-Tat peptide is shown as orange sticks. The pRb-Tat peptide is shown as orange ribbon. C. 1H4 inhibits kinetics of pRb-Tat peptide dephosphorylation by PP1α. Recombinant PP1α was assayed with pRb-Tat (WT or QACA mutant, 120 µM) in the absence or presence of 1H4 as indicated. The reactions were stopped at indicated time points and the phosphate release was quantified by malachite green assay. Initial velocity was calculated by linear regression in Prism. D. 1H4 inhibits kinetics of pRb-cdNIPP dephosphorylation by PP1α. Recombinant PP1α was assayed with pRb-cdNIPP1 in the absence or presence of 1H4 as indicated. Mutant pRb cdNIPP1 pA-RATA was used as negative control. The reactions were stopped at indicated time points and the phosphate release was quantified by malachite green assay. Initial velocity was calculated by linear regression in Prism. […] Initial rates of pRb-Tat peptide dephosphorylation by PP1α were assayed at the indicated concentrations of the substrate in the absence or presence of 300 µM 1H4 or non-HIV-1 inhibitory 1G3. The amount of the released phosphate was quantified with malachite green.
Malachite green dephosphorylation assays were carried out with the Ser/Thr phosphatase assay kit (Upstate, Lake Placid, NY) using recombinant PP1α (New England Biolabs, Ipswich, MA). […]

[4] = biological target: PP1α (Homo sapiens, UniProt P62136)
PP1α, sequence (P62136 whole entry): as the sequence (P62139 whole entry) above

Nc1c2c(nc3ccccc13)CCCC2 [9-amino-1,2,3,4-tetrahydroacridine, reference compound]
Activity as HIV-1 transcription inhibitor (in words) ([1]; data not shown, assay not specified): not active

CCC(c1nnc(SCC(=O)Nc2ncc(-c3ccc(F)cc3)s2)n1Cc1ccccc1)N(C)C (stereo not shown) [T5251659]
IC50 [1]: 10 µM | IC50 [2]: 6 µM

CCN(CC)S(=O)(=O)c1ccc2c(c1)nc(CCC(=O)N(C)c1ccc(C(F)(F)F)cc1)n2C [T5326526]
IC50 [1]: 15 µM | IC50 [2]: 10 µM

CC(OC(=O)c1ccccc1SCC(=O)Nc1ccc2c(c1)OCO2)C(=O)NCCC1=CCCCC1 (stereo not shown) [T5369370]
IC50 [1]: 10 µM | IC50 [2]: 15 µM

O=S(=O)(Nc1ccc(S(=O)(=O)N2CCC(Cc3ccccc3)CC2)cn1)c1ccccc1 [T5481237]
IC50 [1]: 15 µM | IC50 [2]: 20 µM

O=C(CNC(=O)c1ccccc1SCC(=O)NC12CC3CC(CC(C3)C1)C2)Nc1ccc(Cl)cc1 [T5498680]
IC50 [1]: 5 µM | IC50 [2]: 5 µM

CN(C1CCCCC1)S(=O)(=O)c1ccc(NC(=O)COc2ccccc2-c2ccccc2)cc1 [T5551920]
IC50 [1]: 15 µM | IC50 [2]: 15 µM

HIPR(pS)PYKFPSSPLRKKCCFHCQACAITK (HIPR[pS]PYKFPSSPLRKKCCFHCQACAITK; cysteine pairing not given here) [pRb-Tat QACA]
Initial velocity V0 of peptide dephosphorylation by PP1α [3]: 0.17 µM/min and 0.17 ± 0.02 µM/min

HIPR(pS)PYKFPSSPLRKKCCFHCQVCFITK [pRb-Tat]
Initial velocity V0 of peptide dephosphorylation by PP1α [3]: 0.31 µM/min and 0.31 ± 0.03 µM/min

HIPR[pS]PYKFPSSPL [pRb, reference compound]
Initial velocity V0 of peptide dephosphorylation by PP1α [3]: 0.014 µM/min

HIPR[pS]PYKFPSSPLRAAAAASRATASED [pRb-NIPP1 pA-RATA]
Initial velocity V0 of peptide dephosphorylation by PP1α [3]: 0.004 µM/min | Initial velocity V0 of peptide dephosphorylation by PP1α ([3]; listed as pRb-cdNIPP1 pA-RATA): 0.017 ± 0.004 µM/min

HIPR[pS]PYKFPSSPLRKRKRKNSRVTFSED [pRb-NIPP1]
Initial velocity V0 of peptide dephosphorylation by PP1α [3]: 0.56 µM/min | Initial velocity V0 of peptide dephosphorylation by PP1α ([3]; listed as pRb-cdNIPP1): 0.56 ± 0.03 µM/min

HIPR[pS]PYKFPSSPLRKRKRKNSRVTFSED [pRb-NIPP1 peptide]
initial velocity V0 of dephosphorylation of the peptide by recombinant PP1α in the presence of the small molecule 1H4 [4]: 0.37 µM⋅min^−1 | initial velocity V0 of dephosphorylation of the peptide by recombinant PP1α in vitro (malachite green) [4]: 0.56 µM⋅min^−1

Reference: paper PMC3387161, “Small Molecules Targeted to a Non-Catalytic “RVxF” Binding Site of Protein Phosphatase-1 Inhibit HIV-1” (PLoS ONE, 2012)
